Laboratory results taken from patent publication US10577363B2, “Substituted piperidine compounds” (EPIZYME, INC., priority 2014, dated 2020).

target: SMYD3 (Homo sapiens (Human), UniProt Q9H7B4); experiment: SMYD3 biochemical assay (SPA, 3H-SAM methylation of MEKK2 protein substrate); details: read-out: SMYD3 Biochem IC50 (μM)*
Procedure, shortened: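 Enzyme: untagged full-length human SMYD3 from E. coli; substrate GST-tagged MEKK2 from insect cells. Buffer 25 mM Tris-Cl pH 8.0, 1 mM TCEP, 0.005% BSG/Tween 20. 30 min compound–enzyme preincubation at RT; 3H-SAM/MEKK2 start; stop with cold SAM (100 uM final); SPA readout in cpm.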

| IC50 [µM] | SMILES |
| --- | --- |
| 6.47 | NCCCC(=O)N1CCC(NC(=O)c2cc(C3CC3)on2)CC12CCCCC2 (centres unmarked) [compound 301, N-(1-(4-aminobutanoyl)-1-azaspiro[5.5]undecan-4-yl)-5-cyclopropylisoxazole-3-carboxamide] |
| 2.04 | N[C@H]1CC[C@H](C(=O)N2CCC(NC(=O)c3cc(C4CC4)on3)C(C(F)(F)F)C2)CC1 (some centres unmarked) [compound 304, N-(1-((1r,4r)-4-aminocyclohexane-1-carbonyl)-3-(trifluoromethyl)piperidin-4-yl)-5-cyclopropylisoxazole-3-carboxamide] |
| 0.928 | C[C@H](C(=O)N1CC[C@H](NC(=O)c2cc(C3CC3)on2)C[C@H]1C)C1CCNCC1 [compound 307, 5-cyclopropyl-N-((2R,4S)-2-methyl-1-((S)-2-(piperidin-4-yl)propanoyl)piperidin-4-yl)isoxazole-3-carboxamide] |
| 0.179 | C[C@@H]1C[C@@H](NC(=O)c2cc(C3CC3)on2)CCN1C(=O)[C@H](C)C1CCNCC1 [compound 308, 5-cyclopropyl-N-((2R,4S)-2-methyl-1-((R)-2-(piperidin-4-yl)propanoyl)piperidin-4-yl)isoxazole-3-carboxamide] |
| 1.62 | C[C@H]1C[C@H](NC(=O)c2cc(C3CC3)on2)CCN1C(=O)CC(C)(C)CN [compound 311, N-((2S,4R)-1-(4-amino-3,3-dimethylbutanoyl)-2-methylpiperidin-4-yl)-5-cyclopropylisoxazole-3-carboxamide] |
| 5.02 | C[C@@H]1C[C@@H](NC(=O)c2cc(C3CC3)on2)CCN1C(=O)CC(CN)c1ccccc1 (stereo partly drawn) [compound 313, N-((2R,4S)-1-(4-amino-3-phenylbutanoyl)-2-methylpiperidin-4-yl)-5-cyclopropylisoxazole-3-carboxamide] |
| 4.47 | C[C@@H]1C[C@@H](NC(=O)c2cc(C3CC3)on2)CCN1S(=O)(=O)c1ccccn1 [compound 321, 5-cyclopropyl-N-((2R,4S)-2-methyl-1-(pyridin-2-ylsulfonyl)piperidin-4-yl)isoxazole-3-carboxamide] |
| > 10 | CCCS(=O)(=O)N1CC[C@@H](NC(=O)c2cc(C3CC3)on2)C[C@@H]1C [compound 322, 5-cyclopropyl-N-((2S,4R)-2-methyl-1-(propylsulfonyl)piperidin-4-yl)isoxazole-3-carboxamide] |
| > 10 | C[C@H]1C[C@H](NC(=O)c2cc(C3CC3)on2)CCN1S(=O)(=O)Cc1cccnc1 [compound 325, 5-cyclopropyl-N-((2S,4R)-2-methyl-1-((pyridin-3-ylmethyl)sulfonyl)piperidin-4-yl)isoxazole-3-carboxamide] |
| 0.842 | C[C@H]1C[C@@H](NC(=O)c2cc(C3CC3)on2)CCN1C(=O)CC(CN)c1ccccc1 (stereo partly drawn) [compound 338, N-((2S,4S)-1-(4-amino-3-phenylbutanoyl)-2-methylpiperidin-4-yl)-5-cyclopropylisoxazole-3-carboxamide] |
| 1.07 | C[C@@H]1C[C@@H](NC(=O)c2cc(C3CC3)on2)CCN1C(=O)C1CCCC(CN)C1 (stereo partly drawn) [compound 343, N-((2R,4S)-1-(3-(aminomethyl)cyclohexane-1-carbonyl)-2-methylpiperidin-4-yl)-5-cyclopropylisoxazole-3-carboxamide] |
| 8.02 | CCCCS(=O)(=O)N1CC[C@@H](NC(=O)c2cc(C3CC3)on2)C[C@@H]1C [compound 347, N-((2S,4R)-1-(butylsulfonyl)-2-methylpiperidin-4-yl)-5-cyclopropylisoxazole-3-carboxamide] |
| 3.98 | C[C@@H]1C[C@@H](NC(=O)c2cc(C3CC3)on2)CCN1S(=O)(=O)c1ccccc1 [compound 353, 5-cyclopropyl-N-((2R,4S)-2-methyl-1-(phenylsulfonyl)piperidin-4-yl)isoxazole-3-carboxamide] |
| 0.278 | C[C@@H]1C[C@@H](NC(=O)c2cc(C3CC3)on2)CCN1S(=O)(=O)c1cccc(C#N)c1 [compound 355, N-((2R,4S)-1-((3-cyanophenyl)sulfonyl)-2-methylpiperidin-4-yl)-5-cyclopropylisoxazole-3-carboxamide] |

Second part, the compound before the results:

| SMILES | IC50 [µM] |
| --- | --- |
| CC[C@@H]1CN(C(=O)CCCN)CC[C@H]1NC(=O)c1cc(C2CC2)on1 [compound 298, N-((3R,4R)-1-(4-aminobutanoyl)-3-ethylpiperidin-4-yl)-5-cyclopropylisoxazole-3-carboxamide] | 6.1 |
| CC[C@H]1CN(C(=O)CCCN)CC[C@H]1NC(=O)c1cc(C2CC2)on1 [compound 299, N-((3S,4R)-1-(4-aminobutanoyl)-3-ethylpiperidin-4-yl)-5-cyclopropylisoxazole-3-carboxamide] | 0.989 |
| CC[C@H]1CN(C(=O)CCCN)CC[C@@H]1NC(=O)c1cc(C2CC2)on1 [compound 300, N-((3S,4S)-1-(4-aminobutanoyl)-3-ethylpiperidin-4-yl)-5-cyclopropylisoxazole-3-carboxamide] | 3.6 |
| CC[C@@H]1CC(NC(=O)c2cc(C3CC3)on2)C[C@H](CC)N1C(=O)CCCN (stereo partly drawn) [compound 302, N-((2S,6R)-1-(4-aminobutanoyl)-2,6-diethylpiperidin-4-yl)-5-cyclopropylisoxazole-3-carboxamide] | 6.93 |
| CC1CN(C(=O)[C@H]2CC[C@H](N)CC2)CC(C)C1NC(=O)c1cc(C2CC2)on1 (some centres unmarked) [compound 303, N-(1-((1r,4r)-4-aminocyclohexane-1-carbonyl)-3,5-dimethylpiperidin-4-yl)-5-cyclopropylisoxazole-3-carboxamide] | 1.78 |
| C[C@H](C(=O)N1CC[C@@H](NC(=O)c2cc(C3CC3)on2)C[C@H]1C)C1CCNCC1 [compound 305, 5-cyclopropyl-N-((2R,4R)-2-methyl-1-((S)-2-(piperidin-4-yl)propanoyl)piperidin-4-yl)isoxazole-3-carboxamide] | 1.17 |
| C[C@@H]1C[C@H](NC(=O)c2cc(C3CC3)on2)CCN1C(=O)[C@H](C)C1CCNCC1 [compound 306, 5-cyclopropyl-N-((2R,4R)-2-methyl-1-((R)-2-(piperidin-4-yl)propanoyl)piperidin-4-yl)isoxazole-3-carboxamide] | 0.852 |
| C[C@@H]1C[C@H](NC(=O)c2cc(C3CC3)on2)CCN1C(=O)CC(C)(C)CN [compound 312, N-((2R,4R)-1-(4-amino-3,3-dimethylbutanoyl)-2-methylpiperidin-4-yl)-5-cyclopropylisoxazole-3-carboxamide] | 0.416 |
| C[C@H]1C[C@@H](NC(=O)c2cc(C3CC3)on2)CCN1S(=O)(=O)c1ccc(Cl)nc1 [compound 318, N-((2S,4S)-1-((6-chloropyridin-3-yl)sulfonyl)-2-methylpiperidin-4-yl)-5-cyclopropylisoxazole-3-carboxamide] | 1.88 |
| CCOC(=O)CS(=O)(=O)N1CC[C@H](NC(=O)c2cc(C3CC3)on2)C[C@H]1C [compound 320, ethyl 2-(((2R,4S)-4-(5-cyclopropylisoxazole-3-carboxamido)-2-methylpiperidin-1-yl)sulfonyl)acetate] | > 10 |
| CC(C)CS(=O)(=O)N1CC[C@@H](NC(=O)c2cc(C3CC3)on2)C[C@@H]1C [compound 323, 5-cyclopropyl-N-((2S,4R)-1-(isobutylsulfonyl)-2-methylpiperidin-4-yl)isoxazole-3-carboxamide] | > 10 |
| C[C@H]1C[C@H](NC(=O)c2cc(C3CC3)on2)CCN1S(=O)(=O)N1CCN(C)CC1 [compound 324, 5-cyclopropyl-N-((2S,4R)-2-methyl-1-((4-methylpiperazin-1-yl)sulfonyl)piperidin-4-yl)isoxazole-3-carboxamide] | 1.65 |
| C[C@H]1C[C@H](NC(=O)c2cc(C3CC3)on2)CCN1S(=O)(=O)CCc1ccccc1 [compound 326, 5-cyclopropyl-N-((2S,4R)-2-methyl-1-(phenethylsulfonyl)piperidin-4-yl)isoxazole-3-carboxamide] | > 10 |
| COCCCS(=O)(=O)N1CC[C@@H](NC(=O)c2cc(C3CC3)on2)C[C@@H]1C [compound 327, 5-cyclopropyl-N-((2S,4R)-1-((3-methoxypropyl)sulfonyl)-2-methylpiperidin-4-yl)isoxazole-3-carboxamide] | > 10 |
| CC1CN(C(=O)CCCN)CC(C)C1NC(=O)c1cc(C2CC2)on1 (centres unmarked) [compound 332, N-(1-(4-aminobutanoyl)-3,5-dimethylpiperidin-4-yl)-5-cyclopropylisoxazole-3-carboxamide] | 2.53 |
| C[C@H]1C[C@H](NC(=O)c2cc(C3CC3)on2)CCN1C(=O)CC(CN)c1ccccc1 (stereo partly drawn) [compound 339, N-((2S,4R)-1-(4-amino-3-phenylbutanoyl)-2-methylpiperidin-4-yl)-5-cyclopropylisoxazole-3-carboxamide] | 4.67 |
| C[C@@H]1C[C@H](NC(=O)c2cc(C3CC3)on2)CCN1C(=O)C1CCCC(CN)C1 (stereo partly drawn) [compound 342, N-((2R,4R)-1-(3-(aminomethyl)cyclohexane-1-carbonyl)-2-methylpiperidin-4-yl)-5-cyclopropylisoxazole-3-carboxamide] | 0.552 |
| C[C@@H]1C[C@@H](NC(=O)c2cc(C3CC3)on2)CCN1S(=O)(=O)CCc1ccccc1 [compound 344, 5-cyclopropyl-N-((2R,4S)-2-methyl-1-(phenethylsulfonyl)piperidin-4-yl)isoxazole-3-carboxamide] | > 10 |
| C[C@@H]1C[C@@H](NC(=O)c2cc(C3CC3)on2)CCN1S(=O)(=O)CCC(F)(F)F [compound 345, 5-cyclopropyl-N-((2R,4S)-2-methyl-1-((3,3,3-trifluoropropyl)sulfonyl)piperidin-4-yl)isoxazole-3-carboxamide] | > 10 |
| C[C@H]1C[C@H](NC(=O)c2cc(C3CC3)on2)CCN1S(=O)(=O)N(C)C [compound 346, 5-cyclopropyl-N-((2S,4R)-1-(N,N-dimethylsulfamoyl)-2-methylpiperidin-4-yl)isoxazole-3-carboxamide] | > 10 |
| NCCCC(=O)N1CCC(NC(=O)c2cc(C3CC3)on2)C(C(F)(F)F)C1 (centres unmarked) [compound 356, N-(1-(4-aminobutanoyl)-3-(trifluoromethyl)piperidin-4-yl)-5-cyclopropylisoxazole-3-carboxamide] | 1.21 |
